# Experimental data published in patent US11932599B2, “Ferroptosis inducing compound, compositions comprising the same, and methods of inducing ferroptosis” (UNIVERSITY OF MASSACHUSETTS, priority 2021, dated 2024).
# How the values were obtained:
# [1] = tested on: HT-1080 cells; assay: Cell viability assay (Alamar Blue), cytotoxicity in HT-1080 cells; format: cell-based, human
# Procedure: Cell lines and media. In the following example, HT-1080 (Human fibrosarcoma harboring NrasQ61K) cells (obtained from ATCC) were grown in DMEM high-glucose media with 1% non-essential amino acids (Life Technologies) and 10% FBS. 143B cells were grown in DMEM high-glucose media with 1% glutamine and 10% FBS. Calu-1 cells were grown in McCoy's 5A media (Life Technologies) supplemented with 10% FBS. All the cell lines were grown at 37° C. under 5% CO2. Cell lines were not tested for mycoplasma. In addition, the panel of four lung cancer (NCI-H23; SK-Mes-1; Calu6 and A549) were purchased from ATCC. They were cultured according to the ATCC protocol of each cell line. The non-malignant breast epithelial cells (MCF10A) were maintained in DMEM/F12 medium supplemented with 5% horse serum, epidermal growth factor (20 ng/ml), insulin (10 μg/ml), hydrocortisone ([…]), cholera toxin (100 ng/ml), and penicillin/streptomycin.
# Cell viability assay. 9,000 cells per 100 μl were seeded in each well in 96-well plates. Lethal compounds were dissolved in DMSO. In the mother plates, DMSO stock of each compound was further diluted with media to create 20 μM or 10 μm as highest concentrations, respectively and a twofold, 9-point dilution series was prepared. Cells were seeded for 24 h and media were replaced by the mother plate drug-dilution media. When ferroptosis inhibitors (for example, 500 nM Ferrostatin-1, 100 μM α-tocopherol, 152 μM deferoxamine) were used in cotreatments with lethal inducers, they were supplemented to cell culture when the lethal compounds were added, and the cells were then incubated for 48 h. When other cell-death-modulating compounds (100 nM sodium selenite) were used in cotreatments, they were supplemented to cell culture for 24 h before lethal compounds were added to cell culture, after which cells were further incubated for 48 h at 37° C. under 5% CO2. On the day of the viability measurement, we added 25 μl per well of 50% Alamar Blue diluted in media (Life Technologies) and further incubated the cells at 37° C. for 6 h. Fluorescence intensity (excitation/emission: 540/590) was measured with a Victor 3 plate reader (PerkinElmer), and the normalized viability was calculated as VL=(IL−I0)/(IV−I0), where VL is the normalized viability, I0 is the raw fluorescence intensities from the wells containing media, IV is the cells treated with a vehicle (negative control), and IL is the cells with the lethal compound (L), respectively. The viability was typically measured in at least biological duplicate. A representative dose-response curve, the mean and standard error of normalized viability from one replicate were plotted.
# Statistical analysis and data visualization. Dose-response curve plotting and EC50 computation were performed with Prism 6.0c (GraphPad Software).
# Various compounds were selected for analysis of their cytotoxicity in HT-1080 cells according to the procedure described above.
# [2] = tested on: HT-1080 cells; assay: Cell viability assay in HT-1080 cells, cotreatment with cell-death inhibitors; format: cell-based, human; settings: HT-1080, 48 h; for EC50: Homo sapiens, read-out: EC50 (μM) of FIN56 + inhbitor
# [3] = HT-1080 cells, compound alone, read-out: EC 50
# [4] = Homo sapiens, HT-1080, HT-1080 cells, compound alone, read-out: EC 50
smiles,measurement,setting,value
"O=S(=O)(NC1CCCCC1)c1ccc2c(c1)C(=NO)c1cc(S(=O)(=O)NC3CCCCC3)ccc1-2 [FIN56, reference compound]",EC50,[1]; [3],0.326 µM
same,EC50,"[1]; Homo sapiens, HT-1080, 48 h, HT-1080 cells, 48 hour incubation, no inhibitor, read-out: EC50 (μM) of FIN56",0.328 µM
same,EC50,[1]; [4],0.328 µM
same,Slectivity in fold [EC50 (FIN56 + inhibitor)/ EC50 inhbitor],[2]; DFOM (152 μM),>60 fold
same,Slectivity in fold [EC50 (FIN56 + inhibitor)/ EC50 inhbitor],[2]; Fer 1 (500 nM),>90 fold
same,Slectivity in fold [EC50 (FIN56 + inhibitor)/ EC50 inhbitor],[2]; ZVAD 45 μM,0.6 fold
same,blocking of the compound's lethality by the apoptosis inhibitor pathway (ZVAD),[2]; ZVAD 45 μM,did not block
same,Slectivity in fold [EC50 (FIN56 + inhibitor)/ EC50 inhbitor],[2]; aToc (100 μM),34.8 fold
same,EC50,[2]; cotreated with DFOM (152 μM),> 20 µM
same,EC50,[2]; cotreated with Fer 1 (500 nM),> 30 µM
same,EC50,[2]; cotreated with ZVAD (45 μM),0.196 µM
same,EC50,[2]; cotreated with aToc (100 μM),11.5 µM
"N#CC1c2cc(S(=O)(=O)NC3CCCCC3)ccc2-c2ccc(S(=O)(=O)NC3CCCCC3)cc21 [MH1013, 9-cyano-N^2,N^7-dicyclohexyl-9H-fluorene-2,7-disulfonamide]",EC50,[1]; [4],13.4 µM
"C#CCON=C1c2cc(S(=O)(=O)NC3CCCCC3)ccc2-c2ccc(S(=O)(=O)NC3CCCCC3)cc21 [TKD1020, N^2,N^7-dicyclohexyl-9-((prop-2-yn-1-yloxy)imino)-9H-fluorene-2,7-disulfonamide]",EC50,[1]; [4],10.8 µM
"O=S(=O)(NC12CC(C1)C2)c1ccc2c(c1)C(=NO)c1cc(S(=O)(=O)NC34CC(C3)C4)ccc1-2 [TKD1026, N^2,N^7-di(bicyclo[1.1.1]pentan-1-yl)-9-(hydroxyimino)-9H-fluorene-2,7-disulfonamide]",EC50,[1]; [3],1.7 µM
same,EC50,[1]; [4],< 2 µM
"O=S(=O)(NCCF)c1ccc2c(c1)C(=NO)c1cc(S(=O)(=O)NCCF)ccc1-2 [TKD1027, N^2,N^7-bis(2-fluoroethyl)-9-(hydroxyimino)-9H-fluorene-2,7-disulfonamide]",EC50,[1]; [4],> 20 µM
"CNS(=O)(=O)c1ccc2c(c1)C(=NO)c1cc(S(=O)(=O)NC)ccc1-2 [TKD1034A, 9-(hydroxyimino)-N^2,N^7-dimethyl-9H-fluorene-2,7-disulfonamide]",EC50,[1]; [4],12.1 µM
